Assays:
Lin28B = assay: Confocal microscopy, LIN28B level in K562 cells; type: cell-based, human; conditions: FAM labelled ORN3P1, 1 µM, 24 h
Lin28A = assay: Pull-down RNA ELISA, gymnosis, anti-Lin28A; type: cell-based, human; conditions: 3'-biotin conjugates, K562 cells, 2 µM, 24 h; streptavidin plate; vs mock or FUS antibody
Text: Humans express two paralogs of the protein, LIN28 (Lin28A) and LIN28B (Lin28B), that play key roles in development, metabolism, and pluripotency. ^[34] Lin28 proteins are abundantly expressed during embryonic development, as well as in several tumors and tumor‐derived cell lines. ^[35] […] In order to confirm that RNA‐PROTACs bind to endogenous Lin28 in cells, we performed a pull‐down RNA ELISA assay that we have previously described. ^[36] Thus, we conjugated a biotin group to the 3′ ends of ORN3P1 and ORN7P1 and added these reagents separately on to myelogenous leukemia K562 cells. We incubated lysates from treated cells on streptavidin‐coated plates so as to capture the RNA‐PROTACs present in the cell lysates. We then assayed for the presence of Lin28A in the plates using an anti‐Lin28A antibody and a negative control anti‐FUS antibody. […]
The protein extracts (12-17 µg) were run on a 4-20% SDS-PAGE and transferred on a nitrocellulose blotting membrane 0.22 µm (GE Healthcare) using the Trans-Blot transfer device (Biorad). […] The proteins were detected using the anti-lin28a antibody (Cell Signaling technology, D9F5), anti-lin28b antibody (Cell Signaling technology, 4196S), anti-rbfox1 (NovusBio, NBP2-13169SS), at 1:1000 and anti-hrnp c antibody […]
on a ChemiDoc MP imager (Biorad). The intensity of the signal was quantified using the ImageJ-Fiji software. […]

CC[C@H](C)[C@H](NC(=O)[C@H](Cc1ccc(O)cc1)NC(=O)[C@@H]1C[C@@H](O)CN1C(=O)[C@H](C)NC(=O)[C@H](CC(C)C)NC(=O)CCCCCNC(=O)[C@@H](N)CSC1CC(=O)N(CCOP(=O)(S)OC[C@H]2O[C@@H](n3cnc4c(N)ncnc43)[C@H](OCCOC)[C@@H]2OP(=O)(S)OC[C@H]2O[C@@H](n3cnc4c(=O)[nH]c(N)nc43)[C@H](OCCOC)[C@@H]2OP(=O)(S)OC[C@H]2O[C@@H](n3cnc4c(=O)[nH]c(N)nc43)[C@H](OCCOC)[C@@H]2OP(=O)(S)OC[C@H]2O[C@@H](n3cnc4c(N)ncnc43)[C@H](OCCOC)[C@@H]2OP(=O)(S)OC[C@H]2O[C@@H](n3cnc4c(=O)[nH]c(N)nc43)[C@H](OCCOC)[C@@H]2OP(=O)(S)OC[C@H]2O[C@@H](n3cnc4c(N)ncnc43)[C@H](OCCOC)[C@@H]2OP(=O)(S)OC[C@H]2O[C@@H](n3cc(C)c(=O)[nH]c3=O)[C@H](OCCOC)[C@@H]2O)C1=O)C(=O)O (some centres unmarked) [ORN3P1]
LIN28B by confocal microscopy (Lin28B): relatively unaffected
Lin28A pull-down signal (Lin28A): strong signal for Lin28A protein
